Data set [1] concerns the target P-gp (Homo sapiens, UniProt P08183). Particulars: 1 h, 100 μM.
For data set [2], the system named is MCF-7/ADR cells. Kind of data set: Effects of compounds on cytotoxicity of daunomycin (SRB staining). It counts as cell-based. Particulars: Homo sapiens, NCI/ADR-RES, daunomycin alone (DMSO control), 2-hour incubation, SRB after 3 days. The protocol: The cells were cultured to confluence on the plate at 37° C. for 24 hours.
At this time, the group to which only DMSO was added in place of the compounds in accordance with the present invention was taken as a control. […] After 3 days, cytotoxicity was examined according to an SRB staining method which is briefly described as follows. Cells were fixed with 10% TCA for one hour, washed 4 times with water, and then dried. An SRB reagent (0.4% w/v in 1% acetic acid) was added to each well and one hour later, the plate was washed 4 times with 1% acetic acid.
(In SRB staining, fixed cells bind dye roughly in proportion to their protein.)

P-gp, sequence (P08183 whole entry): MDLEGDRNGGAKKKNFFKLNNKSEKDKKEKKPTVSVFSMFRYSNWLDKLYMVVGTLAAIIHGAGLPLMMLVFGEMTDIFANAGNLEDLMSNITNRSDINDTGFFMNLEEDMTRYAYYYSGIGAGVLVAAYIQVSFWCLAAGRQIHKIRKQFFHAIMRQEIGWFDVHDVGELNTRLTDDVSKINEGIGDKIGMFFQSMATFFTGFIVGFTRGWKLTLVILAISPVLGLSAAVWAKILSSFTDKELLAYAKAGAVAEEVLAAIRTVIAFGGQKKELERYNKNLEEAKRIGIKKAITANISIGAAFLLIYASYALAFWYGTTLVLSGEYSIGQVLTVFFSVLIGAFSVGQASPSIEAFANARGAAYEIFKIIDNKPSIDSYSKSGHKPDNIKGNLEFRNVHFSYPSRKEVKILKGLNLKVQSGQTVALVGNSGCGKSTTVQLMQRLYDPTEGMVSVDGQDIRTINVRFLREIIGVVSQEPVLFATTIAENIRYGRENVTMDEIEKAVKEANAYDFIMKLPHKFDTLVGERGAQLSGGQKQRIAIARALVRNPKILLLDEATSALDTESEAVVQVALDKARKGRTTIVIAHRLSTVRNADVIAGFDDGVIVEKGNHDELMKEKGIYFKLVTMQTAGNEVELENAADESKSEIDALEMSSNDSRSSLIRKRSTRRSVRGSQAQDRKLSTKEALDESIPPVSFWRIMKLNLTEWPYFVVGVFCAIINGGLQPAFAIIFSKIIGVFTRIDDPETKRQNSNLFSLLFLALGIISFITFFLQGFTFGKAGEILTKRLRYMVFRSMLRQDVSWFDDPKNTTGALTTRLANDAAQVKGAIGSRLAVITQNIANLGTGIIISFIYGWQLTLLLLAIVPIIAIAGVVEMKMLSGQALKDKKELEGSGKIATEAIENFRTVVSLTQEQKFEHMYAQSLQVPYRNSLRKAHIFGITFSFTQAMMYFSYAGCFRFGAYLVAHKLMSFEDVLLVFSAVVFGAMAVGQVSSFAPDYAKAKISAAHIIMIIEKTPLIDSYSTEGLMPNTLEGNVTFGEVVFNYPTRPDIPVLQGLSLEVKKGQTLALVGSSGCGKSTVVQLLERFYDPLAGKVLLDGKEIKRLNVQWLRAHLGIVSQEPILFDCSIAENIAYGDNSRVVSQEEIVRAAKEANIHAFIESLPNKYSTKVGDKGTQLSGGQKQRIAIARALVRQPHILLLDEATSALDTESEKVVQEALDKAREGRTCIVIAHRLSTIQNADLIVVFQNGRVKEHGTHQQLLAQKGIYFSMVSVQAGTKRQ

In the case of `COc1cccc2c(=O)c3c(O)cc(OCC(O)CCl)cc3oc12` (stereo not shown) [Compound 1, 3-(3-chloro-2-hydroxypropoxy)-1-hydroxy-5-methoxy-9H-xanthen-9-one], the melting point – broadly, the temperature, or range, at which the solid turns liquid – came to 184 °C.

Regarding `O=c1c2ccccc2oc2cc(OCC(O)CCl)cc(O)c12` (stereo not shown) [Compound 2, 3-(3-chloro-2-hydroxypropoxy)-1-hydroxy-9H-xanthen-9-one], the melting point is 144 °C.

Regarding `COc1cccc2c(=O)c3c(O)cc(OCC4CS4)cc3oc12` (stereo not shown) [Compound 3, 1-hydroxy-5-methoxy-3-(thiiran-2-ylmethoxy)-9H-xanthen-9-one], the melting point was 187 °C.

`COc1cccc2c(=O)c3c(OCC4CS4)cc(OCC4CS4)cc3oc12` (stereo not shown) [Compound 5, 1,3-bis(thiiran-2-ylmethoxy)-5-methoxy-9H-xanthen-9-one] came in with a melting point of 240 °C.

For `O=c1c2ccccc2oc2cc(OCC(O)CO)cc(O)c12` (stereo not shown) [Compound 6, 3-(2,3-dihydroxypropoxy)-1-hydroxy-9H-xanthen-9-one], the melting point came to 170 °C.

`COc1cccc2c(=O)c3c(O)cc(OCC(O)CO)cc3oc12` (stereo not shown) [Compound 7, 3-(2,3-dihydroxypropoxy)-1-hydroxy-5-methoxy-9H-xanthen-9-one] displayed a melting point of 189 °C.

In turn, `O=c1c2ccccc2sc2cc(OCC3CS3)cc(O)c12` (stereo not shown) [Compound 8, 1-hydroxy-3-(thiiran-2-ylmethoxy)-9H-thioxanthen-9-one] showed a melting point of 149 °C.

Consider `COc1cc(OCC(O)CCl)cc2oc3ccccc3c(=O)c12` (stereo not shown) [Compound 9, 3-(3-chloro-2-hydroxypropoxy)-1-methoxy-9H-xanthen-9-one], for which the melting point was determined as 107 °C.

`O=c1c2ccccc2sc2cc(OCC(O)CCl)cc(O)c12` (stereo not shown) [Compound 10, 3-(3-chloro-2-hydroxypropoxy)-1-hydroxy-9H-thioxanthen-9-one] had a melting point of 151 °C.

Molecule `O=c1c2ccccc2sc2cc(OCC(S)CCl)cc(O)c12` (stereo not shown) [Compound 11, 3-(3-chloro-2-mercaptopropoxy)-1-hydroxy-9H-thioxanthen-9-one] gave a melting point of 134 °C.

With `O=c1c2ccc3ccccc3c2oc2cc(OCC3CS3)cc(OCC3CS3)c12` (stereo not shown) [Compound 12, 8,10-bis(thiiran-2-ylmethoxy)-7H-benzo[c]xanthen-7-one], the melting point was determined as 202 °C. Moreover, the “Cellular efflux amount of daunomycin (%)” value in data set [1] worked out at 40.39 ± 4.38 %.

As for `COc1cccc2c(=O)c3c(O)cc(OCC(S)CCl)cc3oc12` (stereo not shown) [Compound 13, 3-(3-chloro-2-mercaptopropoxy)-1-hydroxy-5-methoxy-9H-xanthen-9-one], the melting point was determined as 125 °C.

Regarding `O=c1c2c(O)cc(OCC3CS3)cc2oc2ccc3ccccc3c12` (stereo not shown) [Compound 14, 11-hydroxy-9-(thiiran-2-ylmethoxy)-12H-benzo[a]xanthen-12-one], the melting point lay in the range of 167 to 168 °C. Moreover, the “Cellular efflux amount of daunomycin (%)” value in data set [1] came to 64.81 ± 20.45%.

For `O=c1c2c(OCC3CS3)cc(OCC3CS3)cc2oc2ccc3ccccc3c12` (stereo not shown) [Compound 15, 9,11-bis(thiiran-2-ylmethoxy)-12H-benzo[a]xanthen-12-one], the melting point lay within 225 to 226 °C. In data set [1], the “Cellular efflux amount of daunomycin (%)” value was determined as 40.04 ± 5.33 %.

As to `O=c1c2c(OCC3CO3)cc(OCC3CO3)cc2oc2ccc3ccccc3c12` (stereo not shown) [Compound 17, 9,11-bis(oxiran-2-ylmethoxy)-12H-benzo[a]xanthen-12-one], the melting point lay within 198 to 200 °C.

Regarding `O=c1c2cc3ccccc3cc2oc2cc(OCC3CS3)cc(O)c12` (stereo not shown) [Compound 18, 1-hydroxy-3-(thiiran-2-ylmethoxy)-12H-benzo[b]xanthen-12-one], the “Cellular efflux amount of daunomycin (%)” value in data set [1] is recorded as 44.15 ± 5.08 %.

Regarding `O=c1c2cc3ccccc3cc2oc2cc(OCC3CS3)cc(OCC3CS3)c12` (stereo not shown) [Compound 19, 1,3-bis(thiiran-2-ylmethoxy)-12H-benzo[b]xanthen-12-one], the “Cellular efflux amount of daunomycin (%)” value in data set [1] was 42.45 ± 7.23 %.

Take `COc1cccc2c1C(=O)c1c(O)c3c(c(O)c1C2=O)C[C@@](O)(C(C)=O)C[C@@H]3O[C@H]1C[C@H](N)[C@H](O)[C@H](C)O1` [DNM, Daunomycin]: the IC50 (commonly the concentration needed to halve the response being measured) in data set [2] was 25.6 µM.

Molecule `O=c1c2cc3ccccc3cc2oc2cc(OCC3CO3)cc(O)c12` (stereo not shown) [Example 20, 1-hydroxy-3-(oxiran-2-ylmethoxy)-12H-benzo[b]xanthen-12-one] returned a melting point of 201 to 202 °C.

The values are drawn from US8846749B2, “Anticancer-aiding compound, method for preparing the same, anticancer-aiding composition containing the same and method for reducing anticancer drug resistance using the same” (Ewha University-Industry Collaboration Foundation, priority 2009, dated 2014).
